According to US11505523B2, “HDAC8 inhibitors for treating cancer” (City of Hope, priority 2013, dated 2022):

What was measured:
[1] = tested on: dTomato^+/cKit^+ AML cells; experiment: In vivo administration of 22d to mice transplanted with AML cells
Description: FIG. 7A-7I. […] FIG. 7A: Schematic illustration of experimental design. Cbfb^+/56MMx1Cre/tdTomato^+ mice were induced with pIpC and AML cells were isolated from bone marrow of moribund mice and transplanted into sub-lethally irradiated (6.5 Gy) C57Bl/6 congenic mice. […] AML engraftment was analyzed at the end of the treatment period, and transplanted into 2nd recipients. Recipients were analyzed for engraftment at 8 weeks or monitored for leukemia onset and survival. […] Mice were analyzed 8 weeks after transplantation. […] FIG. 7G.
AML cells (1×10^6 or 2×10^6) were directly transplanted into sub-lethally irradiated congenic recipients. […] To further assess the impact on LSC activity, we transplanted bone marrow cells (2×10^6) from these treated mice into secondary recipients and analyzed for AML engraftment.

[2] = tested on: Ac-p53 in non-inv(16) AML (p53 non-mutated) CD34^+ cells; experiment: Western blot of Ac-p53 in non-inv(16) AML CD34+ cells; conditions: similar treatment
Description: We therefore tested whether inhibiting HDAC8 deacetylase activity in inv(16)^+ AML CD34^+ cells could similarly lead to increased p53 acetylation and transcriptional activity.

MOLM13 cells = experiment: Survival/apoptosis of MOLM13 AML cells by Annexin V labeling; assay type: cell-based, human
[3] = tested on: Ac-p53 and p53 in MV4-11 cells; experiment: Western blot of Ac-p53 and p53 in MV4-11 cells; assay type: cell-based, human; conditions: 6-hr, increased HDAC8i concentration
Description: FIGS. 21A-21D. HDAC8 inhibition activates p53 and induces p53-dependent apoptosis in human AML cells. […] FIG. 21B: Western blot analysis of Ac-p53, total p53, Ac-H3, Ac-H4, β-actin in MV4-11 cells treated with indicated doses of HDAC8i for 6 h. FIG. 21C: Fold change in mRNA levels of p53 targets after treatment with PCI-48012 ([…]) for 16 h. FIG. 21D: Western blot analysis of p53, β-actin in MV4-11 cells transduced with control or sh-p53 (top). Relative survival of control or sh-p53 transduced MV4-11 cells treated with HDAC8i (bottom).

Structure (SMILES): COc1ccc(/C=C/C(=O)NO)c(-c2ccc(-c3ccccc3)cc2)c1 [Compound 22d, (E)-N-Hydroxy-4-methoxy-2-(biphenyl-4-yl)cinnamide]
- leukemia onset in secondary recipients ([1]; 5-7 weeks after transplant of 5×10^6 BM cells): no signs of leukemia
- frequency and number of AML cells in bone marrow of secondary recipients ([1]; 8 weeks after transplantation of BM from treated mice): Significant reduction in the frequency (p<0.0001) and the number (p=0.0006)
- frequency and number of dTomato+/cKit+ AML cells in the bone marrow ([1]; intraperitoneal 50 mg/kg/dose twice a day for 2 weeks, vs vehicle): significantly reduced the frequency (p=0.0097) and the number (p=0.0101)
- Ac-p53 level in non-inv(16) AML CD34+ cells [2]: did not affect Ac-p53
- IC50 (MOLM13 cells; 48-hr, Annexin V labeling, read-out: MOLM13 Apoptosis IC50): 3.62 µM
- survival of MOLM13 cells (MOLM13 cells; 48 h, result in words): decreases with increased HDAC8i concentration
- Ac-p53 and p53 signal by western blot [3]: greater signal for Ac-p53 and p53
